In ChEMBL document CHEMBL1129713, “Inhibitors of MMP-1: an examination of P1 C gem-disubstitution in the succinamide hydroxamate series” (Bioorg Med Chem Lett, 1996):

Target: T1, Interstitial collagenase (Homo sapiens, UniProt P03956)
T1 sequence (P03956 whole entry): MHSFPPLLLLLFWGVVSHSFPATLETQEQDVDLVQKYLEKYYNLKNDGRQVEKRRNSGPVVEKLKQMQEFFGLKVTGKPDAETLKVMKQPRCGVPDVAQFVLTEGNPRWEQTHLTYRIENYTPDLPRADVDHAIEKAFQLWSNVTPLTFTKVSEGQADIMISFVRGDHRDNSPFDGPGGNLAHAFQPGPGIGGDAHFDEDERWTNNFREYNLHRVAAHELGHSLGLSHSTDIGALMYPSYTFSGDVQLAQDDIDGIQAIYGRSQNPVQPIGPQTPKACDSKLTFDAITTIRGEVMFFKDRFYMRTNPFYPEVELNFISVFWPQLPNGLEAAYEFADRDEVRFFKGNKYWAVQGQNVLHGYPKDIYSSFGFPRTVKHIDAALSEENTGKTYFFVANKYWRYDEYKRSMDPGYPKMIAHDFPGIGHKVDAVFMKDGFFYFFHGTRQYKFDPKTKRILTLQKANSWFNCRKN
Assay: Inhibition of Matrix Metallo Proteinase-1 (MMP-1)

IC50 | Structure (SMILES)
0.15 µM | CNC(=O)[C@H](Cc1ccc(OC)cc1)NC(=O)C1(CC(=O)NO)CCCCC1
0.46 µM | CNC(=O)[C@H](Cc1ccc(OC)cc1)NC(=O)C(C)(CC(=O)NO)CC(C)C (stereo partly specified)
2.8 µM | CNC(=O)[C@H](Cc1ccc(OC)cc1)NC(=O)C1(CC(=O)NO)CCCC1
> 30 µM | CNC(=O)[C@H](Cc1ccc(OC)cc1)NC(=O)[C@@]1(CC(=O)NO)CCc2ccccc21
0.57 µM | CNC(=O)[C@H](Cc1ccc(OC)cc1)NC(=O)C1(CC(=O)NO)Cc2ccccc2C1
17.5 µM | CNC(=O)[C@H](Cc1ccc(OC)cc1)NC(=O)[C@]1(CC(=O)NO)CCc2ccccc21
3.8 µM | CNC(=O)[C@H](Cc1ccc(OC)cc1)NC(=O)C(C)(CC(=O)NO)c1ccccc1 (stereo partly specified)
0.04 µM | CNC(=O)[C@H](Cc1ccc(OC)cc1)NC(=O)C(CC(=O)NO)c1ccccc1 (stereo partly specified)
0.77 µM | CNC(=O)[C@H](Cc1ccc(OC)cc1)NC(=O)C1(CC(=O)NO)CCCc2ccccc21 (stereo partly specified)
2.2 µM | CNC(=O)[C@H](Cc1ccc(OC)cc1)NC(=O)C1(CC(=O)NO)Cc2ccccc21 (stereo in doubt; form 1)
0.8 µM | CNC(=O)[C@H](Cc1ccc(OC)cc1)NC(=O)C1(CC(=O)NO)Cc2ccccc21 (stereo in doubt; form 2)
